Test results as given in patent US11958868B2, “Methods of using metal complexes to promote wound healing” (University of Macau, priority 2022, dated 2024).

Key:
[1] = biological target: T1, human recombinant VHL:ElonginB:ElonginC (VBC) complex (Homo sapiens, UniProt P40337); assay: Circular dichroism of VBC complex; assay type: binding; conditions: 3 μM in 1% DMSO
T1 construct: made in house

[2] = biological target: T1, human recombinant VHL:ElonginB:ElonginC (VBC) complex; assay: Competitive fluorescence polarization binding assay
[3] = tested on: HIF-1α levels in A498 (VHL-null) cells; assay: HIF-1α accumulation in VHL-null A498 cells; assay type: cell-based; conditions: 1a 3 μM, VH298 100 μM, 2 h
Experimental: FIG. 3 depicts the effect of complex 1a on HIF-1α target gene products in cellulo. (A) Effect of complex 1a on specific proteins (GLUT1, VEGF, and EPO) mediated by HIF-1α in HEK293 cells. HEK293 cells were treated with 1a for 2 h. Cell lysis were collected and analyzed by the Western blotting. (B) Complex 1a has no effect on HIF-1α accumulation in a VHL null cancer cell line. A498 (VHL-null), or HEK293 cells were treated with 1% DMSO, 1a (3 μM), VH298 (100 μM), and FG-4592 (100 μM) for 2 h before lysis. (C) Effect of complex 1a on EPO, GLUT1, and VEGF levels in HEK293 cells with or without HIF-1α knockdown. Left: The expression levels of EPO, GLUT1, and VEGF in HEK293 cells with or without knockdown HIF-1α in the presence or absence of 1a. Right: Densitometry analysis of EPO, GLUT1, and VEGF levels on the Western blot. HIF-1α siRNA [sense, 5′-[…]-3′ (SEQ ID NO:1), antisense, 5′-[…]-3′ (SEQ ID NO:2)]. Negative control (NC) siRNA [sense, 5′-[…]-3′ (SEQ ID NO:3), antisense, 5′-[…]-3′ (SEQ ID NO:4)]. Data are expressed as means±SD (n=3 independent experiments), P values were calculated using a two-sided t-test. #P<0.05, P<0.01 HIF-1α siRNA vs. NC siRNA, *P<0.05, **P<0.01 1a vs. vehicle/DMSO group, respectively. […]

[4] = tested on: HIF-2a; assay: Effect on HIF-2a level and activity; assay type: cell-based
[5] = Stability in solution (1H NMR, UV/Vis); assay type: physicochemical; conditions: 298 K
Excerpt: Based on the structure of complex 1, a focused library of 14 cyclometalated Rh(III) and Ir(III) complexes containing different CAN or NAN donor ligands were designed and synthesized (1a-1n) (FIG. 1c). This library was enriched in the brpy CAN and dmeophen N^N ligands that were identified in the first round of screening to be favorable substructures for potency.

[6] = tested on: wound tissue of normal and diabetic mice; assay: Wound tissue analysis (H&E, Masson's trichrome, laser doppler, CD31, Western blot, qRT-PCR) in normal and diabetic mice; assay type: in vivo
Excerpt: (A) Timeline for in vivo experiments. (B) Image of representative wound (left) and wound closure rate (right) (n=5 mice). (C) H&E and Masson's trichrome staining of dorsal skin section and skin thickness from the top of the epidermis to the bottom of the dermis in mice after 8 days post-injury (n=4 mice). Scale bar=200 μm. (D) Laser doppler imager in dorsal skin: representative images were shown for each group (left) and baseline perfusion on back skin of mice (right) after 2 days post-injury (dotted line circle represents the wound bed in mice of each group and arrow represents perfusion intensity (n=5 mice). (E) CD31 and DAPI double staining in wound bed of mice after 8 days post-injury (n=4 mice). Scale bar=50 μm. Data are expressed as means±SD, P values were calculated using a one-way ANOVA with Tukey's multiple comparison test. #P<0.05, ##P<0.01 WT vs. db/db, *P<0.05, **P<0.01 1a vs. vehicle.
(A) Western blot analyses and quantitation of HIF-1α, VEGF, GLUT1, and EPO in wound tissue (n=3 mice). All proteins were normalized by β-actin. (B) The mRNA levels of HIF-1α target genes involved in wound healing were analyzed by qRT-PCR in wound tissues (n=5 mice). Data are expressed as means±SD, P values were calculated using a one-way ANOVA with Tukey's multiple comparison test. P<0.05, P<0.01 WT vs. db/db, *P<0.05, **P<0.01 1a vs. vehicle. S
The epithelial thickness of the regenerated skin in each group was compared using H&E staining and Masson's trichrome staining. […] One of the key processes related to wound healing is tissue angiogenesis.
After electrophoresis of protein samples (30 μg of total protein) on SDS-PAGE gels, the samples were transferred to a PVDF membrane and incubated at room temperature with blocking solution for 1 h. The membrane was treated with primary antibodies and incubated overnight at 4° C. After 1 h incubation with the secondary antibodies (Supplementary Table Sl), protein bands were visualized using ECL Western Blotting Detection Reagent (GE Healthcare).
After fixation in 4% paraformaldehyde, the skin samples were embedded in paraffin and sectioned ([…]). For histological evaluation, sections were deparaffinized and rehydrated followed by hematoxylin and eosin (H&E) and Masson's trichrome staining. For immunohistochemical staining of CD31, the wound tissue sections were deparaffinized and stained with CD31 antibody (1:1000; ABclonal, Cambridge, MA, USA). The slides were examined under ×400 magnification to identify the area with the highest vascular density, and five randomly high-power field areas of the highest microvessel density were selected for each section. The average was calculated as the microvessel density of this sample.

[7] = Body weight, blood glucose and toxicity in treated mice; assay type: in vivo
Excerpt: The mice were maintained for 3 days. […] All experiments complied with all relevant ethical regulations.

[8] = normal and diabetic mice, 8 days post-injury

COc1cc[n+]2c3c1ccc1c(OC)cc[n+](c13)[Ir-3]213([c]2ccccc2-c2cccc[n+]21)[c]1ccccc1-c1cccc[n+]13.F[P-](F)(F)(F)(F)F [1a]
Circular dichroism signal of VBC complex [1]: distinct shift of the signal
IC50 ([2]; 125 nM fluorescent peptide and 450 nM VBC, four-parameter logistic equation): 3790 nM
Kd ([2]; displacement of FAM-DEALAHyp-YIPD from VBC): 2060 nM
HIF-1α levels in A498 cells [3]: no increase in HIF-1α levels
Level and activity of HIF-2a [4]: no effect on the level and activity of HIF-2a
Stability in [d6]DMSO/D2O (9:1) solution ([5]; 1H NMR spectroscopy): remarkable stability in a [d6]DMSO/D2O (9:1) solution for at least seven days
Stability in acetonitrile/H2O (9:1) solution ([5]; UV/Vis spectroscopy): for at least seven days
HIF-1α target genes in wound tissue, qRT-PCR, WT/NC mice ([6]; WT/NC mice): weaker effects
Expression of HIF-1α, VEGF, GLUT1 and EPO in wound tissue (Western blotting) ([6]; WT/NC, db/db, HFD/STZ and STZ groups, 8 days post-wounding, vs vehicle): significantly increased
HIF-1α target genes (HSP-90, VEGFR-1, SDF-1, SCF, Tie-2) in wound tissue, qRT-PCR, diabetic mice ([6]; diabetic mice): also increased in the wound tissue of 1a-treated diabetic mice
Microvessel density in wound areas (CD31 immunostaining) ([6]; normal and diabetic groups, 8 days post-injury): significantly enhanced microvessel density
Skin blood flow rate (skin perfusion pressure test) ([6]; normal and diabetic mice, 2 days post-injury): remarkably increased skin blood flow rate
Collagen deposition in wound areas [6, 8]: enhanced collagen deposition in wound areas
Skin thickness (H&E, Masson's trichrome) [6, 8]: increased skin thickness
Blood glucose levels or body weight ([7]; HFD/STZ and STZ models, diabetic and NC mice, 1.25 mg/kg i.p.): neither diabetic nor normal control mice (NC) showed obvious changes in blood glucose levels or body weight
Body weight after local application ([7]; WT and db/db mice, 0.25 mg/mL topical, 8 days): did not affect body weight
Toxicity in animal models of diabetes ([7]; db/db, HFD/STZ and STZ): without significant toxicity
